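Compound exposure: 48 hours, 5 concentrations, 96-well plates. At the GI50, growth is halved. TGI is the concentration that stops growth completely.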
Legend:
Assay in all cases: NCI-60 cell line screen, 48 h
[1] = tested on: LOX IMVI melanoma
[2] = tested on: HCC-2998 colon
[3] = tested on: SF-295 CNS
[4] = tested on: SK-MEL-5 melanoma
[5] = tested on: HS 578T breast
[6] = tested on: SK-OV-3 ovarian
[7] = tested on: T-47D breast
[8] = tested on: SK-MEL-2 melanoma
[9] = tested on: NCI-H460 lung
[10] = tested on: M14 melanoma
[11] = tested on: MDA-MB-435
[12] = tested on: PC-3 prostate
[13] = tested on: OVCAR-8 ovarian
[14] = tested on: SK-MEL-28 melanoma
[15] = tested on: BT-549 breast
[16] = tested on: HT29 colon
[17] = tested on: NCI-H23 lung
[18] = tested on: NCI-H226 lung
[19] = tested on: NCI/ADR-RES ovarian
[20] = tested on: DU-145 prostate
[21] = tested on: ACHN renal
[22] = tested on: OVCAR-5 ovarian
[23] = tested on: OVCAR-4 ovarian
[24] = tested on: U251 CNS
[25] = tested on: SNB-75 CNS
[26] = tested on: MOLT-4 leukemia
[27] = tested on: 786-0 renal
[28] = tested on: MDA-MB-231 breast

Q: What does the source list for `COc1cc2c(cc1OCc1ccccc1)N=CC1C[C@@H](O)CN1C2=O` (stereo not given in full)?
A: GI50 [1]: 2.37 µM; TGI [1]: 6.5 µM; GI50 [2]: 17.1 µM; TGI [2]: 37.1 µM; GI50 [3]: 4.62 µM; TGI [3]: > 71.5 µM; GI50 [4]: 2.53 µM; TGI [4]: 5.38 µM; GI50 [5]: 4.84 µM; TGI [5]: 18.6 µM; GI50 [6]: 17.5 µM; TGI [6]: > 71.5 µM; GI50 [7]: 1.95 µM; TGI [7]: 7.09 µM; GI50 [8]: 3.08 µM; TGI [8]: 9.19 µM; GI50 [9]: 10.7 µM; TGI [9]: > 100 µM; GI50 [10]: 4.71 µM; TGI [10]: 19.5 µM; GI50 [11]: 3.88 µM; TGI [11]: 14.7 µM; GI50 [12]: 23.1 µM; TGI [12]: > 100 µM; GI50 [13]: 8.35 µM; TGI [13]: > 74.8 µM; GI50 [14]: 8.23 µM; TGI [14]: 28.4 µM; GI50 [15]: 2.47 µM; TGI [15]: 9.54 µM; GI50 [16]: 7.22 µM; TGI [16]: > 100 µM; GI50 [17]: 7.83 µM; TGI [17]: 25.3 µM; GI50 [18]: 23.6 µM; TGI [18]: > 100 µM; GI50 [19]: 14.7 µM; TGI [19]: > 56.7 µM; GI50 [20]: 4.04 µM; TGI [20]: 72.1 µM; GI50 [21]: 5.83 µM; TGI [21]: 50 µM; GI50 [22]: 3.37 µM; TGI [22]: > 25.3 µM; GI50 [23]: 12.4 µM; TGI [23]: > 73.5 µM; GI50 [24]: 2.86 µM; TGI [24]: > 100 µM; GI50 [25]: 9.08 µM; TGI [25]: 47 µM; GI50 [26]: 2.01 µM; TGI [26]: 5.51 µM; GI50 [27]: 2.26 µM; TGI [27]: 7.68 µM; GI50 [28]: 3.01 µM

Source: PubChem BioAssay (NCI)
